Results as given in US20060270655A1, “Combination therapy for treating obesity or maintaining weight loss” (priority 2005, published 2006).

Test: Food intake (12 hour spontaneous food intake, rats on high fat diet)
Assay type: in vivo
Details: male Sprague-Dawley rats
Protocol: The following functional assay was used to determine the effect of an intestinal-acting MTPi, a CB-1 antagonist, and the combination of an intestinal-acting MTPi and a CB-1 antagonist on food intake. The doses of the CB-1 antagonist used in the experiments were 10 mg/kg and 30 mg/kg. The doses of the intestinal-acting MTPi used in the experiments were 3 mg/kg and 10 mg/kg. The different dosages for each active were tested alone and in various combinations with each other as compared to a control (vehicle).
Male Sprague-Dawley rats (275-325 grams) were placed on a high fat diet (Research Diets, 45% kcal from fat). Animals were acclimated to an automated food intake assessment system overnight. Food weight data was collected by computer acquisition. Immediately prior to the start of the dark cycle on the first day, animals were given a PO (i.e., orally by mouth) dose of a gMTP inhibitor (Dirlotapide) or vehicle (self-emulsifying drug delivery system (SEDDS) formulation containing 20% Miglyol 812, 30% Triacetin, 20% Tween 80, and 30% Capmul MCM). On the second day, rats (n=5-10/group) were given a PO dose of a CB-1 antagonist (Compound A) or 0.5% methylcellulose 20 minutes prior to a second dose of Dirlotapide or vehicle. Food Intake was monitored until the following day. Data for each treatment group was compared by ANOVA (analysis of variance).

Row | SMILES | 12 hour Spontaneous Food Intake (10 mg/kg Compound A PO alone (plus SEDDS vehicle)) | 12 hour Spontaneous Food Intake (30 mg/kg Compound A PO alone (plus SEDDS vehicle)) | 12 hour Spontaneous Food Intake (3 mg/kg Dirlotapide PO alone (two daily doses, plus 0.5% methylcellulose)) | 12 hour Spontaneous Food Intake (10 mg/kg Dirlotapide PO alone (two daily doses, plus 0.5% methylcellulose))
1 | CCNC1(C(N)=O)CCN(c2ncnc3c2nc(-c2ccccc2Cl)n3-c2ccc(Cl)cc2)CC1 [Compound A, 1-[9-(4-chloro-phenyl)-8-(2-chloro-phenyl)-9H-purin-6-yl]4-ethylamino-piperidine-4-carboxylic acid amide] | 16.3 ± 1.0 grams | 12.6 ± 1.4 grams | – | –
2 | CN(Cc1ccccc1)C(=O)[C@@H](NC(=O)c1cc2cc(NC(=O)c3ccccc3-c3ccc(C(F)(F)F)cc3)ccc2n1C)c1ccccc1 [Dirlotapide, (S)-N-{2-[benzyl(methyl)amino]-2-oxo-1-phenylethyl}-1-methyl-5-[4′-(trifluoromethyl)[1,1′-biphenyl]-2-carboxamido]-1H-indole-2 carboxamide] | – | – | 14.6 ± 0.8 grams | 11.3 ± 0.7 grams
